Measured values taken from article PMC5641083, “Blockage of FOXP3 transcription factor dimerization and FOXP3/AML1 interaction inhibits T regulatory cell activity: sequence optimization of a peptide inhibitor” (Oncotarget, 2017).

Columns and labels:
murine Treg cells = assay type: cell-based, BALB/c mice
Source text: Results shown in Figures 1–3 correspond to cell-free assays where peptides can interact directly with its corresponding protein partner. However, FOXP3 binding peptides need to enter into the cell in order to inhibit FOXP3 functions. Once we identified some mutants with higher capacity to bind FOXP3, we studied their capacity to inhibit the suppressor activity of natural Tregs in vitro. Thus, we activated effector T cells with anti-CD3 monoclonal antibody in the presence of Tregs, and analyzed the capacity of each peptide to restore T cell proliferation inhibited by Treg cells. […] Indeed, when results from the point-variant screening are represented as a heat map, it is clear that introduction of an alanine at positions 2, 5 and 11 improved activity of the original P60, whereas alanine mutations at positions 1, 7, 8, 9, 10 and 12 are detrimental (Figure 4C).
Isolation of murine CD4^+CD25^+, and CD4^+CD25^− T-cells was performed from murine spleen cells by using murine regulatory T-cell isolation kit (Miltenyi Biotec, Bergisch Gladbach, Germany) according to manufacturer's instructions. The purity of the resulting T-cell populations was confirmed to be > 95% by flow cytometry.
Inhibition of murine T regulatory cell function was measured in an in vitro assay of T-cell stimulation. CD25+ depleted spleen cells (10^5 cells/well) from BALB/c mice were stimulated in vitro with 2, 5 μg/ml of anti-mouse CD3 antibody (Pharmingen) in the presence/absence of purified Treg cells (10^4 cells/well). T-cell proliferation was measured 3 days later as previously described.

Treg cells = experiment: Treg pre-treated with peptide, then Treg suppression assay; assay type: cell-based; details: Treg incubated with peptide at 20 μM for 24 hours, washed
Source text: FOXP3 is critical for the development and function of Tregs, but also, FOXP3 can be transiently expressed in effector T cells after TCR stimulation leading to hyporesponsiveness of the effector T cell. […] We speculate that the Foxp3 inhibitory peptides may work at two levels: (i) reducing Treg function and (ii) releasing the brake of FOXP3 transient expression on effector T cells. Thus, we studied the effect of CM-1315 in T cell proliferation and IL-2 and IFN-γ production in effector T cells in response to anti-CD3 stimulation. The original P60, the optimized peptide CM-1315 and a control peptide were tested. […] We also studied the effect of the peptides directly in Tregs. Thus, freshly isolated Treg cells were pre-treated with the peptides for 24 h, and after extensive washing, they were used in conventional Treg suppression assay in coculture with effector T cells and anti-CD3 stimulation.
Supplementary Figure 4: Effect of Foxp3 inhibitory peptides in effector T cells alone. […] T cell proliferation (A) and IL-2 and IFN-γ (B and C) production in response to anti-CD3 stimulation was measured by 3H-thymidine incorporation and by ELISA respectively.
Supplementary Figure 5: Effect of FOXP3 inhibitory peptides in Treg cells. […] T cell proliferation was measured by 3H-thymidine incorporation assay. […]

CT26 tumor cells = details: AH1 in IFA, P60 50 nanomol/mice/day i.p. day 0 to day 9, 5 × 10^5 cells; cited from earlier work

IC50 (murine Treg cells): 38.3 µM
Substance: H-RDFQSFRKMWPFFAM-OH [P60]
Inhibition of suppressive activity of pre-treated Treg (in words) (Treg cells): not able to inhibit significantly Treg cells, although some reversal of suppression was observed | Protection against CT26 tumor challenge (in words) (CT26 tumor cells): protected mice from CT26 tumor challenge
